Measured values published in patent US12692302B2, “Uses of IL-13 antagonists for treating atopic dermatitis” (Genentech, Inc., priority 2016, dated 2026).

Test system: patients with persistent moderate to severe atopic dermatitis inadequately controlled by TCS
Test: Clinical Study I (phase II, lebrikizumab + TCS vs placebo + TCS): efficacy outcomes
Type: in vivo, human
Conditions: for Mean % Change in % BSA Affected / Mean % Change in EASI / Mean % Change in Pruritus VAS / Mean % Change in SCORAD / Mean % Change in Sleep VAS / Mean Absolute Change in IGA: screening to baseline (2-week TCS run-in, before study drug)
Procedure: Clinical Study I was a phase II, randomized, double-blind, placebo-controlled study to evaluate the safety and efficacy of lebrikizumab in patients (age 18-75) with persistent moderate to severe atopic dermatitis that is inadequately controlled by topical corticosteroids (TCS). In this Study, lebrikizumab was tested in combination with TCS.
The inclusion criteria included the following: age 18 to 75 years; AD diagnosed by the Hanifin/Rajka criteria and that had been present for at least 1 year at screening; moderate to severe AD as graded by the Rajka/Langeland criteria at screening; history of inadequate response to a 1 month (within the 3 months prior to the screening visit) treatment regimen of at least daily TCS and regular emollient for treatment of AD; EASI score 14 at screening and end of the run-in period (Visit 3), IGA score 3 (5-point scale) at screening and end of the run-in period (Visit 3); AD involvement of 10% body surface area (BSA) at screening; and Pruritus VAS score (measured as part of the SCORAD) of 3 at screening.
Run-in Period. Following the screening visit, eligible patients entered a 2-week run-in period (Days −14 to −1) during which a protocol-specified topical therapy regimen was initiated. On the first day of the run-in period (Day −14) patients received TCS for use throughout the run-in period. Patients were required to apply the following topical therapy regimen daily: emollient to all xerotic skin surfaces, at least once daily; TCS cream consisting of medium potency TCS (triamcinolone acetonide 0.1%), two times per day, only to all active skin lesions.
Treatment Period. […] The plan was to randomize approximately 200 patients (1:1:1:1) to one of the following four treatment groups (see FIG. 1): (1) Group 1: lebrikizumab 250 mg administered subcutaneously (SC) single dose (Day 1) followed by 2 placebo doses (at Week 4 and at Week 8) for a total of 3 doses+TCS cream; (2) Group 2: lebrikizumab 125 mg SC single dose (Day 1) followed by 2 placebo doses (Week 4 and Week 8) for a total of 3 doses+TCS cream; (3) Group 3: lebrikizumab 125 mg SC every 4 weeks (Q4W) for a total of 3 doses+TCS cream; and (4) Group 4: placebo SC Q4W for a total of 3 doses+TCS cream. Three active doses were included to characterize both exposure-response relationships and dosing frequency requirements.
Patients randomized to these four study treatment groups received study drug (lebrikizumab or placebo SC) in combination with TCS. Throughout the 12-week treatment period these patients continued to apply emollient at least once daily and triamcinolone acetonide 0.1% cream as described in the run-in period (two times per day to all active skin lesions on the body). […] Patients recorded their use of topical creams and responded to PRO-related questions using a hand held eDiary throughout the treatment period. At each study visit the patient was required to bring their TCS containers to the study site to be weighed.
Efficacy Outcome Measures. The primary efficacy outcome measure was the percentage of patients achieving EASI-50 (a 50% reduction in EASI score from baseline) at Week 12. […]

[1] = 125 mg Q4W + TCS BID (n = 51), Week 12
[2] = 125 mg Q4W + TCS BID (n = 51), Week 12, listed as Lebri
[3] = 125 mg once every four weeks + TCS, Week 12, post hoc analysis
[4] = 125 mg single dose + TCS BID (n = 52), Week 12
[5] = 250 mg single dose + TCS BID (n = 53), Week 12

## lebrikizumab: monoclonal humanized anti-IL-13 IgG4 antibody; heavy chain SEQ ID NO: 11, light chain SEQ ID NO: 12; formulated at 125 mg/mL in prefilled syringe
[1]
  % Patients achieving EASI-50: 82.4%
  % Patients achieving EASI-50, placebo-corrected changes: 20.1%
  % Patients achieving EASI-75: 54.9%
  % Patients achieving EASI-75, placebo-corrected changes: 20.9%
  % Patients achieving IGA 0/1: (33.3) %
  % Patients achieving IGA 0/1, placebo-corrected change: 14.5%
  % Patients achieving SCORAD-50: 51.0%
  % Patients achieving SCORAD-50, placebo-corrected change: 24.6%
  % Patients achieving SCORAD-75: (21.6) %
  % change from baseline in AD Specific health-related QoL - ADIQ, mean: −54.3%
  % change from baseline in ADIQ, placebo-corrected change: −25.3%
  % change from baseline in Pruritus VAS (from SCORAD), mean: −40.71%
  % change from baseline in Pruritus VAS (from SCORAD), placebo-corrected change: −13.7%
  % change from baseline in Sleep Loss VAS (from SCORAD), mean: −53.6%
  % change from baseline in Sleep Loss VAS (from SCORAD), placebo-corrected change: −31.0%
  DLQI, % change from baseline, adjusted mean: −43.12%
  DLQI, % change from baseline, Δ vs placebo: −9.55%
  SCORAD score % change from baseline, adjusted mean: −53.5%
  SCORAD score % change from baseline, Δ vs placebo: −18.0%
  Total % BSA affected, % change from baseline, adjusted mean: −57.7%
  Total % BSA affected, % change from baseline, Δ vs placebo: −10.3%
[2]
  % Patients achieving EASI-50: (82.4) %
  % Patients achieving EASI-75: (54.9) %
  % Patients achieving SCORAD-50: (51.0) %
125 mg Q4W + TCS, Week 12
  reduction in BSA affected: 57.7%
125 mg Q4W + TCS, Week 20
  Change from baseline Pruritus VAS, mean % change: −35.23%
  Change from baseline Pruritus VAS, placebo-corrected differences: −13.76%
  Change from baseline in EASI, mean % change: −71.1%
  Change from baseline in EASI, placebo-corrected differences: −17.08%
  Patients maintaining EASI-50 response at Weeks 12 and 20, %: (90.5) %
  Patients maintaining EASI-50 response at Weeks 12 and 20, placebo-corrected differences: 17.75%
  Patients maintaining EASI-75 response at Weeks 12 and 20, %: (75.0) %
  Patients maintaining EASI-75 response at Weeks 12 and 20, placebo-corrected differences: 8.33%
  Patients maintaining IGA 0/1 response at Weeks 12 and 20, %: (70.6) %
  Patients maintaining IGA 0/1 response at Weeks 12 and 20, placebo-corrected differences: 10.59%
  Patients maintaining SCORAD-50 response at Weeks 12 and 20, %: (50.0) %
  Patients maintaining SCORAD-50 response at Weeks 12 and 20, placebo-corrected differences: −28.60%
125 mg SD + TCS, Week 20
  Change from baseline Pruritus VAS, mean % change: −27.59%
  Change from baseline Pruritus VAS, placebo-corrected differences: −6.13%
  Change from baseline in EASI, mean % change: −62.1%
  Change from baseline in EASI, placebo-corrected differences: −8.08%
  Patients maintaining EASI-50 response at Weeks 12 and 20, %: (80.6) %
  Patients maintaining EASI-50 response at Weeks 12 and 20, placebo-corrected differences: 7.83%
  Patients maintaining EASI-75 response at Weeks 12 and 20, %: (45.0) %
  Patients maintaining EASI-75 response at Weeks 12 and 20, placebo-corrected differences: −21.70%
  Patients maintaining IGA 0/1 response at Weeks 12 and 20, %: (54.5) %
  Patients maintaining IGA 0/1 response at Weeks 12 and 20, placebo-corrected differences: −5.45%
  Patients maintaining SCORAD-50 response at Weeks 12 and 20, %: (61.1) %
  Patients maintaining SCORAD-50 response at Weeks 12 and 20, placebo-corrected differences: −17.50%
[3]
  ADIQ reduction from screening: 64.7%
  Pruritus VAS reduction from screening: 55.2%
  Sleep Loss VAS reduction from screening: 61.5%
125 mg once every four weeks for 12 weeks + TCS, P=0.025
  placebo corrected change in EASI (difference between lebrikizumab treatment and placebo): 17.4%
125 mg once every four weeks for 12 weeks + TCS, modified intention-to-treat population
  % change (decrease) from baseline in EASI: 70.5%
[4]
  % Patients achieving EASI-50: (69.2) %
  % Patients achieving EASI-50, placebo-corrected changes: 7.0%
  % Patients achieving EASI-75: (38.5) %
  % Patients achieving EASI-75, placebo-corrected changes: 4.5%
  % Patients achieving IGA 0/1: (21.2) %
  % Patients achieving IGA 0/1, placebo-corrected change: 2.3%
  % Patients achieving SCORAD-50: (34.6) %
  % Patients achieving SCORAD-50, placebo-corrected change: 8.2%
  % Patients achieving SCORAD-75: (13.5) %
  % change from baseline in AD Specific health-related QoL - ADIQ, mean: −33.9%
  % change from baseline in ADIQ, placebo-corrected change: −4.9%
  % change from baseline in Pruritus VAS (from SCORAD), mean: −34.92%
  % change from baseline in Pruritus VAS (from SCORAD), placebo-corrected change: −7.38%
  % change from baseline in Sleep Loss VAS (from SCORAD), mean: −53.1%
  % change from baseline in Sleep Loss VAS (from SCORAD), placebo-corrected change: −30.6%
  DLQI, % change from baseline, adjusted mean: −34.33%
  DLQI, % change from baseline, Δ vs placebo: −0.76%
  SCORAD score % change from baseline, adjusted mean: −38.7%
  SCORAD score % change from baseline, Δ vs placebo: −3.3%
  Total % BSA affected, % change from baseline, adjusted mean: −45.2%
  Total % BSA affected, % change from baseline, Δ vs placebo: 2.2%
250 mg SD + TCS, Week 20
  Change from baseline Pruritus VAS, mean % change: −30.25%
  Change from baseline Pruritus VAS, placebo-corrected differences: −8.79%
  Change from baseline in EASI, mean % change: −55.9%
  Change from baseline in EASI, placebo-corrected differences: −1.88%
  Change from baseline in the % BSA affected, mean % change: −46.4%
  Change from baseline in the % BSA affected, placebo-corrected differences: 5.56%
  Patients maintaining EASI-50 response at Weeks 12 and 20, %: (78.4) %
  Patients maintaining EASI-50 response at Weeks 12 and 20, placebo-corrected differences: 5.65%
  Patients maintaining EASI-75 response at Weeks 12 and 20, %: (61.5) %
  Patients maintaining EASI-75 response at Weeks 12 and 20, placebo-corrected differences: −5.13%
  Patients maintaining IGA 0/1 response at Weeks 12 and 20, %: (60.0) %
  Patients maintaining IGA 0/1 response at Weeks 12 and 20, placebo-corrected differences: 0%
  Patients maintaining SCORAD-50 response at Weeks 12 and 20, %: (64.0) %
  Patients maintaining SCORAD-50 response at Weeks 12 and 20, placebo-corrected differences: −14.60%
[5]
  % Patients achieving EASI-50: (69.8) %
  % Patients achieving EASI-50, placebo-corrected changes: 7.6%
  % Patients achieving EASI-75: (49.1) %
  % Patients achieving EASI-75, placebo-corrected changes: 15.1%
  % Patients achieving IGA 0/1: (28.3) %
  % Patients achieving IGA 0/1, placebo-corrected change: 9.4%
  % Patients achieving SCORAD-50: 47.2%
  % Patients achieving SCORAD-50, placebo-corrected change: 20.8%
  % Patients achieving SCORAD-75: (11.3) %
  % change from baseline in AD Specific health-related QoL - ADIQ, mean: −30.8%
  % change from baseline in ADIQ, placebo-corrected change: −1.8%
  % change from baseline in Pruritus VAS (from SCORAD), mean: −32.82%
  % change from baseline in Pruritus VAS (from SCORAD), placebo-corrected change: −5.28%
  % change from baseline in Sleep Loss VAS (from SCORAD), mean: −47.2%
  % change from baseline in Sleep Loss VAS (from SCORAD), placebo-corrected change: −24.6%
  DLQI, % change from baseline, adjusted mean: −40.67%
  DLQI, % change from baseline, Δ vs placebo: −7.09%
  SCORAD score % change from baseline, adjusted mean: −42.6%
  SCORAD score % change from baseline, Δ vs placebo: −7.2%
  Total % BSA affected, % change from baseline, adjusted mean: −38.6%
  Total % BSA affected, % change from baseline, Δ vs placebo: 8.8%
250 mg single dose + TCS BID (n = 53), Week 12, listed as Lebri
  % Patients achieving SCORAD-50: (47.2) %
125 mg Q4W group (n = 51)
  Mean % Change in % BSA Affected: −9.3%
  Mean % Change in EASI: −9.1%
  Mean % Change in Pruritus VAS: −15.2%
  Mean % Change in SCORAD: −7.7%
  Mean % Change in Sleep VAS: −12.9%
  Mean Absolute Change in IGA: −0.14
125 mg SD group (n = 52)
  Mean % Change in % BSA Affected: −17.1%
  Mean % Change in EASI: −14.3%
  Mean % Change in Pruritus VAS: −23.8%
  Mean % Change in SCORAD: −12.2%
  Mean % Change in Sleep VAS: −29.0%
  Mean Absolute Change in IGA: −0.21
250 mg SD group (n = 53)
  Mean % Change in % BSA Affected: −4.3%
  Mean % Change in EASI: −10.2%
  Mean % Change in Pruritus VAS: −15.5%
  Mean % Change in SCORAD: −9.9%
  Mean % Change in Sleep VAS: −8.1%
  Mean Absolute Change in IGA: −0.17
